Assays:
Assay in all cases: relative viability (nuclei count vs DMSO), 5 days (fraction); higher = more cells survive
LU99A = system: LU99A
In short: (§1)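 Values are medians from duplicate plates. Each reflects relative viability, defined as the nuclei count of treated wells over that of vehicle wells. Lung cancer cell lines in 1536-well plates were pin-tool dosed one day after seeding with one drug alone or with a fixed anchor-drug dose plus five library-drug doses (not always all listed) in √10 steps, then fixed, stained and imaged at 4× after 5 days.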

LXF-289 = system: LXF-289
In short: as §1

NCI-H322M = system: NCI-H322M
In short: as §1

PC-14 = system: PC-14
In short: as §1

LCLC-103H = system: LCLC-103H
In short: as §1

RERF-LC-KJ = system: RERF-LC-KJ
In short: as §1

NCI-H23 = system: NCI-H23
In short: as §1

EPLC-272H = system: EPLC-272H
In short: as §1

LK-2 = system: LK-2
In short: as §1

HCC-827 = system: HCC-827
In short: as §1

EKVX = system: EKVX
In short: as §1

SW 1573 = system: SW 1573
In short: as §1

ChaGo-K-1 = system: ChaGo-K-1
In short: as §1

HCC-78 = system: HCC-78
In short: as §1

NCI-H1666 = system: NCI-H1666
In short: as §1

EMC-BAC-2 = system: EMC-BAC-2
In short: as §1

NCI-H2405 = system: NCI-H2405
In short: as §1

NCI-H2342 = system: NCI-H2342
In short: as §1

SK-LU-1 = system: SK-LU-1
In short: as §1

SW 900 = system: SW 900
In short: as §1

NCI-H2126 = system: NCI-H2126
In short: as §1

NCI-H1975 = system: NCI-H1975
In short: as §1

Structure (SMILES): CCN(CC)CCCCNc1ncc2cc(-c3cc(OC)cc(OC)c3)c(NC(=O)NC(C)(C)C)nc2n1 + Cc1cc(Nc2cc(N3CCN(C)CC3)nc(Sc3ccc(NC(=O)C4CC4)cc3)n2)n[nH]1 [Tozasertib] (partner 0.1 µM)
- relative viability (LU99A; first compound 0.01 µM): 0.283
- relative viability (LU99A; first compound 0.03162 µM): 0.281
- relative viability (LU99A; first compound 0.1 µM): 0.324
- relative viability (LU99A; first compound 0.3162 µM): 0.269
- relative viability (LU99A; first compound 1 µM): 0.265
- relative viability (LXF-289; first compound 0.01 µM): 0.201
- relative viability (LXF-289; first compound 0.03162 µM): 0.219
- relative viability (LXF-289; first compound 0.1 µM): 0.268
- relative viability (LXF-289; first compound 0.3162 µM): 0.186
- relative viability (LXF-289; first compound 1 µM): 0.156
- relative viability (NCI-H322M; first compound 0.01 µM): 0.717
- relative viability (NCI-H322M; first compound 0.03162 µM): 0.49
- relative viability (NCI-H322M; first compound 0.1 µM): 0.589
- relative viability (NCI-H322M; first compound 0.3162 µM): 0.57
- relative viability (NCI-H322M; first compound 1 µM): 0.448
- relative viability (PC-14; first compound 0.01 µM): 0.689
- relative viability (PC-14; first compound 0.03162 µM): 0.578
- relative viability (PC-14; first compound 0.1 µM): 0.62
- relative viability (PC-14; first compound 0.3162 µM): 0.685
- relative viability (PC-14; first compound 1 µM): 0.598
- relative viability (LCLC-103H; first compound 0.01 µM): 0.588
- relative viability (LCLC-103H; first compound 0.03162 µM): 0.486
- relative viability (LCLC-103H; first compound 0.1 µM): 0.54
- relative viability (LCLC-103H; first compound 0.3162 µM): 0.452
- relative viability (LCLC-103H; first compound 1 µM): 0.31
- relative viability (RERF-LC-KJ; first compound 0.01 µM): 0.547
- relative viability (RERF-LC-KJ; first compound 0.03162 µM): 0.617
- relative viability (RERF-LC-KJ; first compound 0.1 µM): 0.51
- relative viability (RERF-LC-KJ; first compound 0.3162 µM): 0.567
- relative viability (RERF-LC-KJ; first compound 1 µM): 0.489
- relative viability (NCI-H23; first compound 0.01 µM): 0.408
- relative viability (NCI-H23; first compound 0.03162 µM): 0.405
- relative viability (NCI-H23; first compound 0.1 µM): 0.352
- relative viability (NCI-H23; first compound 0.3162 µM): 0.301
- relative viability (NCI-H23; first compound 1 µM): 0.339
- relative viability (EPLC-272H; first compound 0.01 µM): 0.282
- relative viability (EPLC-272H; first compound 0.03162 µM): 0.314
- relative viability (EPLC-272H; first compound 0.1 µM): 0.279
- relative viability (EPLC-272H; first compound 0.3162 µM): 0.212
- relative viability (EPLC-272H; first compound 1 µM): 0.234
- relative viability (LK-2; first compound 0.01 µM): 0.168
- relative viability (LK-2; first compound 0.03162 µM): 0.196
- relative viability (LK-2; first compound 0.1 µM): 0.184
- relative viability (LK-2; first compound 0.3162 µM): 0.213
- relative viability (LK-2; first compound 1 µM): 0.159
- relative viability (HCC-827; first compound 0.01 µM): 0.536
- relative viability (HCC-827; first compound 0.03162 µM): 0.394
- relative viability (HCC-827; first compound 0.1 µM): 0.423
- relative viability (HCC-827; first compound 0.3162 µM): 0.547
- relative viability (HCC-827; first compound 1 µM): 0.396
- relative viability (EKVX; first compound 0.01 µM): 0.475
- relative viability (EKVX; first compound 0.03162 µM): 0.383
- relative viability (EKVX; first compound 0.1 µM): 0.407
- relative viability (EKVX; first compound 0.3162 µM): 0.558
- relative viability (EKVX; first compound 1 µM): 0.366
- relative viability (SW 1573; first compound 0.01 µM): 0.249
- relative viability (SW 1573; first compound 0.03162 µM): 0.148
- relative viability (SW 1573; first compound 0.1 µM): 0.225
- relative viability (SW 1573; first compound 0.3162 µM): 0.193
- relative viability (SW 1573; first compound 1 µM): 0.173
- relative viability (ChaGo-K-1; first compound 0.01 µM): 0.233
- relative viability (ChaGo-K-1; first compound 0.03162 µM): 0.213
- relative viability (ChaGo-K-1; first compound 0.1 µM): 0.223
- relative viability (ChaGo-K-1; first compound 0.3162 µM): 0.242
- relative viability (ChaGo-K-1; first compound 1 µM): 0.219
- relative viability (HCC-78; first compound 0.01 µM): 0.433
- relative viability (HCC-78; first compound 0.03162 µM): 0.399
- relative viability (HCC-78; first compound 0.1 µM): 0.507
- relative viability (HCC-78; first compound 0.3162 µM): 0.55
- relative viability (HCC-78; first compound 1 µM): 0.446
- relative viability (NCI-H1666; first compound 0.01 µM): 0.529
- relative viability (NCI-H1666; first compound 0.03162 µM): 0.635
- relative viability (NCI-H1666; first compound 0.1 µM): 0.673
- relative viability (NCI-H1666; first compound 0.3162 µM): 0.672
- relative viability (NCI-H1666; first compound 1 µM): 0.614
- relative viability (EMC-BAC-2; first compound 0.01 µM): 0.162
- relative viability (EMC-BAC-2; first compound 0.03162 µM): 0.292
- relative viability (EMC-BAC-2; first compound 0.1 µM): 0.277
- relative viability (EMC-BAC-2; first compound 0.3162 µM): 0.31
- relative viability (EMC-BAC-2; first compound 1 µM): 0.26
- relative viability (NCI-H2405; first compound 0.01 µM): 0.729
- relative viability (NCI-H2405; first compound 0.03162 µM): 0.737
- relative viability (NCI-H2405; first compound 0.1 µM): 0.699
- relative viability (NCI-H2405; first compound 0.3162 µM): 0.733
- relative viability (NCI-H2405; first compound 1 µM): 0.695
- relative viability (NCI-H2342; first compound 0.01 µM): 0.448
- relative viability (NCI-H2342; first compound 0.03162 µM): 0.513
- relative viability (NCI-H2342; first compound 0.1 µM): 0.476
- relative viability (NCI-H2342; first compound 0.3162 µM): 0.469
- relative viability (NCI-H2342; first compound 1 µM): 0.537
- relative viability (SK-LU-1; first compound 0.01 µM): 0.306
- relative viability (SK-LU-1; first compound 0.03162 µM): 0.359
- relative viability (SK-LU-1; first compound 0.1 µM): 0.388
- relative viability (SK-LU-1; first compound 0.3162 µM): 0.363
- relative viability (SK-LU-1; first compound 1 µM): 0.259
- relative viability (SW 900; first compound 0.01 µM): 0.662
- relative viability (SW 900; first compound 0.03162 µM): 0.573
- relative viability (SW 900; first compound 0.3162 µM): 0.451
- relative viability (SW 900; first compound 1 µM): 0.382
- relative viability (NCI-H2126; first compound 0.01 µM): 0.861
- relative viability (NCI-H2126; first compound 0.03162 µM): 0.859
- relative viability (NCI-H2126; first compound 0.1 µM): 1.1
- relative viability (NCI-H2126; first compound 0.3162 µM): 0.864
- relative viability (NCI-H2126; first compound 1 µM): 0.798
- relative viability (NCI-H1975; first compound 0.01 µM): 0.876
- relative viability (NCI-H1975; first compound 0.03162 µM): 0.859
- relative viability (NCI-H1975; first compound 0.1 µM): 1.1
- relative viability (NCI-H1975; first compound 0.3162 µM): 0.992
- relative viability (NCI-H1975; first compound 1 µM): 0.407

From the supplement of paper PMC10307832
